Source: publication PMC7801115, “Preclinical in vitro screening of newly synthesised amidino substituted benzimidazoles and benzothiazoles” (Journal of Enzyme Inhibition and Medicinal Chemistry, 2021)

What was measured:
A549 = assay: Cell viability assay, 3D hanging drop cell culture (CellTiter GLO 3D); assay type: cell-based; details: Homo sapiens; A549, 3D hanging drop cell culture, 72 h; ±SD, N = 2; read-out: IC50 antitumor activity A549 3D
Description: (§1) Compounds are diluted 1:3. 500 nL (for 2 D cell culture) or 400 nL (for 3 D cell culture) of compound were transferred from mother plate to test plate by using Mosquito (TTP labtech). DMSO percentage in test concentrations was 0.5 − 1.0%. Starting concentration of the test compounds and standard compound doxorubicin was 50 µM (2 D cell culture) or 100 µM (3 D cell culture).
(§2) Cells were grown in 96 well Perfecta 3 D hanging drop plates 5000 cell/well for 4 days until spheres were formed (and checked under the microscope). After sphere formation cells were treated with compounds followed by 72 h incubation. Cell viability assay was performed according to the manufacturer’s instruction, using CellTiter GLO 3 D for 3 D cell culture (Promega); cell incubation was 5 min on the shaker followed by 25 min incubation in the dark. Plates were read using PE EnVision luminescence.
(§3) Calculation of IC50 data, curves and QC analysis is made by using Excel tools and GraphPadPrism software (La Jolla, CA), v. […] QC criteria parameters (Z', S:B, R2, HillSlope) were checked for every IC50 curve.

HCC827 = assay: as above; assay type: cell-based; details: Homo sapiens; HCC827, 3D hanging drop cell culture, 72 h; ±SD, N = 2; read-out: IC50 antitumor activity HCC827 3D
Description: as §1, §2, §3

NCI-H358 = assay: as above; assay type: cell-based; details: Homo sapiens; NCI-H358, 3D hanging drop cell culture, 72 h; ±SD, N = 2; read-out: IC50 antitumor activity NCI-H358 3D
Description: as §1, §2, §3

[1] = system: P-glycoprotein (human MDR1); assay: MDCKII-MDR1 permeability and P-glycoprotein substrate assay; assay type: in vitro ADME, canine cells over-expressing human MDR1; details: dog; for efflux ratio at 60 min, 10 µM: MDCK-MDR1, pH 7.4, without P-gp inhibitor; for Papp A→B at 60 min, 10 µM / Papp B→A at 60 min, 10 µM: MDCK-MDR1, pH 7.4, without P-gp inhibitor; for Papp A→B at 60 min, 10 µM: read-out: MDCKII-MDR1 Papp(A2B); for Papp B→A at 60 min, 10 µM: read-out: MDCKII-MDR1 Papp(B2A)
Description: Permeability and P-glycoprotein substrate assessment was done on MDCKII-hMDR1, Madin-Darby canine epithelial cells over-expressing human MDR1 gene, coding for P-glycoprotein.
Cells were prepared for transport studies by seeding on 96-well cell culture inserts (Millipore, MA, USA) in a concentration of 0.25 × 10^6 cells per ml. The cells were fed with fresh medium 24 h post seeding and cultured to confluence for 3 days before use. On the day of experiment, the cell monolayers were washed and equilibrated with transport medium (DPBS, pH 7.4 containing 1% DMSO) with or without P-gp specific inhibitor, elacridar (2 µM) for 45 min (37 °C, 5% CO2, 95% humidity). Test compound solution consisted of test substance (10 μM) in D-PBS medium containing lucifer yellow (100 μM) and 1% DMSO. Transport assays were conducted in apical to basolateral (A2B) and basolateral to apical (B2A) directions, respectively. Monolayers were incubated with the compound solution for 60 min at 37 °C under gentle agitation. Apical and basolateral compartments were sampled at the end of the transport experiment, while donor solutions were also sampled at the beginning of the experiment in order to determine initial concentration. Test substance concentrations in both compartments were determined by LC-MS/MS. There were several controls used in the assay: 1) amprenavir (0.5 μM) served as a low permeable control, being also a P-gp substrate; 2) diclofenac (10 μM) was used as a high permeable control; 3) Lucifer yellow, a fluorescent marker for the paracellular membrane transport, was used as a control of cell monolayer integrity.
(§4) All ADME samples were analysed on a Sciex API 4000 or Sciex API4500 Triple Quadrupole Mass Spectrometer (Sciex, Framingham, MA, USA) coupled to a UHPLC System (Shimadzu Nexera X2; Shimadzu, Kyoto, Japan). Samples were injected onto an UPLC column (HALO2 C18, 2.1 × 20 mm, 2 µm or Phenomenex Luna Omega Polar C18, 30 × 2.1 mm, 1.6 µm) and eluted with a gradient at temperature of 50 °C. The mobile phase was composed of acetonitrile (with 0.1% formic acid) and 0.1% formic acid in deionised water. A total run time was 1 or 1.5 min, with the flow rate of 0.7 ml/min (under gradient conditions). A positive ion mode with turbo spray, an ion source temperature of 500 °C and a dwell time of 150 ms were utilised for mass spectrometric detection. Multiple reaction monitoring (MRM) was used at the specific transitions for each compound/control tested: compound 5c: 361.9 → 304.9; compound 5d: 344.8 → 287.9; compound 5e: 349.8 → 292.9; compound 5 g: 350.8 → 293.9; compound 5 h: 344.0 → 286.9; compound 6a: 276.9 → 220.0; compound 5 b: 319.0 → 262.0; compound 6 b: 302.1 → 245.1; compound 6c: 344.9 → 288.0; compound 6d: 333.0 → 276.0; compound 6e: 316.1 → 259.0; compound 6f: 327.1 → 270.0; compound 6 g: 377.1 → 320.1; testosterone: 289.3→ 97.1; propranolol: 260.1 → 182.8; caffeine: 195.2 → 138.1; acebutolol: 337.2 → 116.2, nicardipine: 480.2 → 315.0; verapamil: 455.4 → 165.1; amprenavir: 506.2 → 245.4; diclofenac: 296.1 → 213.7 or 296.2 → 215.3; eucatropine: 292.2 → 109.1; benfluorex: 352.1 → 230.3, and warfarin: 309.2 → 163.2

Kinetic solubility = assay type: physicochemical; details: aqueous buffer, kinetic from dmso stock, phosphate buffer 50 mM, pH 7.4, 1% DMSO, 37 °C
Description: Test compounds and assay controls (sulfaphenazole and α-naphtoflavone) were serially diluted in DMSO by factor 3.3x, 3x, 3.3x and 3x, resulting in a total of 5 different concentrations. Phosphate buffer (50 mM, pH 7.4) was spiked with diluted test compounds and controls with final concentration range in the assay as follows: 100, 30, 10, 3 and 1 µM (1% DMSO). Plate was then incubated by gentle shaking (200–300 rpm) for 1 h and 45 min at 37 °C. After additional15 min on room temperature (without shaking), plate absorbance at 620 nm was measured with microplate reader Tecan, Infinite F500 (total incubation time = 2 h).

Stability in plasma = assay type: in vitro ADME; details: 37 °C
Description: Tested compounds (final concentration of 5 µM, 0.5% DMSO) were incubated for 4 h at 37 °C in human and mouse plasma, respectively. Aliquots were taken at different time points (0, 30, 120 and 240 min) and reaction was terminated by addition of a MeCN/MeOH (2:1) mixture, containing internal standard (diclofenac). Samples were then centrifuged (at 4500 rpm, at 4 °C, for 30 min) and resulting supernatants were subjected to LC-MS/MS analysis. The same procedure was followed for controls used in the assay: propranolol (both species), benfluorex (mouse) and eucatropine (human), respectively.
as §4

IC50 (A549) [µM] | IC50 (HCC827) [µM] | IC50 (NCI-H358) [µM] | efflux ratio at 60 min, 10 µM [1] | Papp A→B at 60 min, 10 µM [1] [×10⁻⁶ cm/s] | Papp B→A at 60 min, 10 µM [1] [×10⁻⁶ cm/s] | solubility kinetic at 2 h (Kinetic solubility) [µM] | remaining at 4 h, 5 µM (Stability in plasma; human plasma) [%] | remaining at 4 h, 5 µM (Stability in plasma; mouse plasma) [%] | SMILES
60 ± 1.44 | > 100 | > 100 | 35.4 | 0.59 | 20.5 | > 100 | 86 | 95 | Cl.N#Cc1ccc(-c2nc3ccc(C4=NCCCN4)cc3s2)cc1 [Compound 5b, 2–(4-Cyanophenyl)-6–(3,4,5,6-tetrahydropyrimidin-1-ium-2-yl)benzothiazole chloride]
16 ± 0.65 | 12 ± 0.16 | 34 ± 0.7 | > 200 | < 0.1 | 21.5 | > 100 | 83 | 94 | Cl.FC(F)(F)c1ccc(-c2nc3ccc(C4=NCCCN4)cc3s2)cc1 [Compound 5c, 2–(4-Trifluoromethylphenyl)-6–(3,4,5,6-tetrahydropyrimidin-1-ium-2-yl)benzothiazole chloride]
16 ± 1.3 | > 100 | 40 ± 4.89 | > 158 | < 0.1 | 15.8 | 30 to 100 | 81 | 85 | Cl.c1ccc2nc(-c3nc4ccc(C5=NCCCN5)cc4s3)ccc2c1 [Compound 5d, 2-(Quinoline-2-yl)-6–(3,4,5,6-tetrahydropyrimidin-1-ium-2-yl)benzothiazole chloride]
23 ± 6.24 | 22 ± 9.45 | 34 ± 0.16 | > 78 | < 0.1 | 7.6 | 30 to 100 | 82 | 77 | Cl.c1ccc2sc(-c3nc4ccc(C5=NCCCN5)cc4s3)cc2c1 [Compound 5e, 2-(Benzo[b]thiophen-2-yl)-6–(3,4,5,6-tetrahydropyrimidin-1-ium-2-yl)benzothiazole chloride]
15 ± 1.35 | 17 ± 0.93 | 31 ± 0.05 | > 17 | < 0.1 | 16.5 | 30 to 100 | 86 | 81 | Cl.c1ccc2sc(-c3nc4ccc(C5=NCCCN5)cc4s3)nc2c1 [Compound 5g, 2-(Benzothiazole-2-yl)-6–(3,4,5,6-tetrahydropyrimidin-1-ium-2-yl)benzothiazole chloride]
14 ± 0.38 | 12 ± 0.26 | 31 ± 0.33 | > 77 | < 0.1 | 7.7 | 10 to 30 | 74 | 85 | Cl.c1ccc2cc(-c3nc4ccc(C5=NCCCN5)cc4s3)ccc2c1 [Compound 5h, 2-(Naphthalene-2-yl)-6–(3,4,5,6-tetrahydropyrimidin-1-ium-2-yl)benzothiazole chloride]
13 ± 1.46 | 9 ± 3.05 | 17 ± 1.94 | 3.7 | 0.4 | 1.4 | > 100 | 73 | 79 | c1ccc(-c2nc3cc(C4=NCCCN4)ccc3[nH]2)cc1 [Compound 6a, 2-Phenyl-5(6)–(3,4,5,6-tetrahydropyrimidin-1-ium-2-yl)benzimidazole chloride]
> 100 | > 100 | > 100 | < 2 | 0.92 | 1.02 | > 100 | 98 | 119 | N#Cc1ccc(-c2nc3cc(C4=NCCCN4)ccc3[nH]2)cc1 [Compound 6b, 2–(4-Cyanophenyl)-5(6)–(3,4,5,6-tetrahydropyrimidin-1-ium-2-yl)benzimidazole chloride]
> 100 | > 100 | > 100 | 2.82 | 0.69 | 1.93 | > 100 | 96 | 94 | FC(F)(F)c1ccc(-c2nc3cc(C4=NCCCN4)ccc3[nH]2)cc1 [Compound 6c, 2–(4-Trifluoromethylphenyl)-5(6)–(3,4,5,6-tetrahydropyrimidin-1-ium-2-yl)benzimidazole chloride]
> 100 | > 100 | > 100 | 7.75 | 0.11 | 0.86 | 10 to 30 | 95 | 92 | c1ccc2sc(-c3nc4cc(C5=NCCCN5)ccc4[nH]3)cc2c1 [Compound 6d, 2-(Benzo[b]thiophen-2-yl)-5(6)–(3,4,5,6-tetrahydropyrimidin-1-ium-2-yl)benzimidazole chloride]
> 100 | > 100 | > 100 | 3.89 | 0.57 | 2.17 | 10 to 30 | 98 | 84 | c1ccc2c(-c3nc4ccc(C5=NCCCN5)cc4[nH]3)c[nH]c2c1 [Compound 6e, 2-(1H-Indol-3-yl)-5(6)–(3,4,5,6-tetrahydropyrimidin-1-ium-2-yl)benzimidazole chloride]
